{"source": "patent US20220047551A1", "about": "“PHARMACEUTICAL AGENT FOR TREATING AMYOTROPHIC LATERAL SCLEROSIS OR SUPPRESSING DISEASE PROGRESS THEREOF” (Mitsubishi Tanabe Pharma Corporation, priority 2011, published 2022)", "test_system": "patients with amyotrophic lateral sclerosis", "assay": "Placebo-controlled clinical test in amyotrophic lateral sclerosis patients, measured in terms of ALSFRS-R", "type": "in vivo, human", "experimental": "199 patients with amyotrophic lateral sclerosis who complied with the following selection standards were divided into an actual drug administration group consisting of 100 patients and a placebo administration group of 99 patients:\nWith regard to the actual drug administration group, two ampules of “Radicut (registered trademark), Injection 30 mg” (containing 30 mg of 3-methyl-1-phenyl-2-pyrazolin-5-one; manufactured and distributed by Mitsubishi Tanabe Pharma Corporation) were diluted with a suitable amount of normal saline before the use, and the thus prepared solution was intravenously administered to the patients by drops over 60 minutes once a day. On the other hand, with regard to the placebo administration group, only normal saline was administered to the patients in the same manner as for the actual drug administration group.\nThe administration period was divided into first to sixth courses. The first course consisted of a continuous 14-day administration period and the subsequent drug holiday period for 14 days in which drug administration was not carried out. In the second to sixth courses, 1 set consisting of an administration period for a total of 10 out of 14 days and the subsequent 14-day drug holiday period was repeated 5 times.\nBefore initiation of the drug administration in the first course, and upon termination of the drug holiday periods in the first, second, third, fourth, fifth and sixth courses, the 199 patients were measured in terms of ALSFRS-R. Among the 199 patients, some patients were dropped out from the test during a period after initiation of the administration in the fourth course and before termination of the drug holiday period in the sixth course. In the case of these drop-out patients, the ALSFRS-R score measured immediately before dropping out from the test was considered to be the score upon termination of the drug holiday period in the sixth course, and it was used in the analysis.\nA difference between the ALSFRS-R scores between before initiation of the administration in the first course and upon termination of the drug holiday period in the sixth course is shown below.\nSubsequently, the 199 patients were divided into the following (1) to (7):\n(1) patients who were determined to be “Definite ALS” or “Probable ALS” according to the revised El Escorial (Airlie House) diagnostic criteria; (2) patient who were determined to be “Definite ALS” according to the revised El Escorial (Airlie House) diagnostic criteria; (3) patients who scored two or more points from all items constituting the ALSFRS-R; (4) patients whose % FVC was 80% or more; (5) patients who scored two or more points from all items constituting the ALSFRS-R and whose % FVC was 80% or more; (6) patients who were determined to be “Definite ALS” or “Probable ALS” according to the revised El Escorial (Airlie House) diagnostic criteria, scored two or more points from all items constituting the ALSFRS-R, and whose % FVC was 80% or more; and (7) patients who were determined to be “Definite ALS” according to the revised El Escorial (Airlie House) diagnostic criteria, scored two or more points from all items constituting the ALSFRS-R, and whose % FVC was 80% or more. With regard to the thus specified patients (1) to (7), differences in the ALSFRS-R scores between before the administration in the first course and upon termination of the drug holiday period in the sixth course are shown below.", "data": [{"smiles": "CC1=NN(c2ccccc2)C(=O)C1", "note": "[Actual drug, 3-methyl-1-phenyl-2-pyrazolin-5-one]", "values": [{"measurement": "Between-group difference in ALSFRS-R score change (actual drug vs placebo)", "setting": "(1) Definite ALS or Probable ALS", "result": 1.2, "unit": "points"}, {"measurement": "Before-and-after difference in ALSFRS-R score", "setting": "(1) Definite ALS or Probable ALS, before first course vs end of sixth course", "result": "−5.7", "unit": "points"}, {"measurement": "Between-group difference in ALSFRS-R score change (actual drug vs placebo)", "setting": "(2) Definite ALS", "result": 2.0, "unit": "points"}, {"measurement": "Before-and-after difference in ALSFRS-R score", "setting": "(2) Definite ALS, before first course vs end of sixth course", "result": "−6.7", "unit": "points"}, {"measurement": "Between-group difference in ALSFRS-R score change (actual drug vs placebo)", "setting": "(3) two or more points from all items constituting ALSFRS-R", "result": 1.6, "unit": "points"}, {"measurement": "Before-and-after difference in ALSFRS-R score", "setting": "(3) two or more points from all items constituting ALSFRS-R, before first course vs end of sixth course", "result": "−4.7", "unit": "points"}, {"measurement": "Between-group difference in ALSFRS-R score change (actual drug vs placebo)", "setting": "(4) 80% or more % FVC", "result": 1.3, "unit": "points"}, {"measurement": "Before-and-after difference in ALSFRS-R score", "setting": "(4) 80% or more % FVC, before first course vs end of sixth course", "result": "−3.9", "unit": "points"}, {"measurement": "Between-group difference in ALSFRS-R score change (actual drug vs placebo)", "setting": "(5) two or more points from all ALSFRS-R items and 80% or more % FVC", "result": 2.5, "unit": "points"}, {"measurement": "Before-and-after difference in ALSFRS-R score", "setting": "(5) two or more points from all ALSFRS-R items and 80% or more % FVC, before first course vs end of sixth course", "result": "−3.4", "unit": "points"}, {"measurement": "Between-group difference in ALSFRS-R score change (actual drug vs placebo)", "setting": "(6) Definite ALS or Probable ALS, two or more points from all ALSFRS-R items, and 80% or more % FVC", "result": 3.7, "unit": "points"}, {"measurement": "Before-and-after difference in ALSFRS-R score", "setting": "(6) Definite ALS or Probable ALS, two or more points from all ALSFRS-R items, and 80% or more % FVC, before first course vs end of sixth course", "result": "−3.8", "unit": "points"}, {"measurement": "Between-group difference in ALSFRS-R score change (actual drug vs placebo)", "setting": "(7) Definite ALS, two or more points from all ALSFRS-R items, and 80% or more % FVC", "result": 6.4, "unit": "points"}, {"measurement": "Before-and-after difference in ALSFRS-R score", "setting": "(7) Definite ALS, two or more points from all ALSFRS-R items, and 80% or more % FVC, before first course vs end of sixth course", "result": "−4.6", "unit": "points"}, {"measurement": "Between-group difference in ALSFRS-R score change (actual drug vs placebo)", "setting": "all patients (not specified)", "result": 0.7, "unit": "points"}, {"measurement": "Before-and-after difference in ALSFRS-R score", "setting": "all patients (not specified), before first-course administration vs end of sixth-course drug holiday, 60 mg i.v. drops over 60 min once a day", "result": "−5.3", "unit": "points"}, {"measurement": "Comparison with the placebo administration group (ALSFRS-R difference)", "setting": "patient groups (5) to (7)", "result": "significant difference"}, {"measurement": "Reduction of the risk of death or tracheostomy", "setting": "specific patients (1) to (7), extrapolated from 7% risk per 1 point ALSFRS-R (Neurology 2005; 64: 38-43)", "result": "≥ 3.5", "unit": "%"}]}]}
